Assay results: patent US9346815B2, “5-chloro-2-difluoromethoxyphenyl pyrazolopyrimidine compounds, compositions and methods of use thereof” (Genentech, Inc., priority 2014, dated 2016)

Experiments:
[1] = target: isolated recombinant JAK1 kinase domain (Homo sapiens (Human), UniProt P23458); assay: JAK1 enzyme assay (Caliper LabChip, peptide phosphorylation); assay type: biochemical; conditions: isolated recombinant JAK1 kinase domain, 25 μM ATP
[2] = target: isolated recombinant JAK2 kinase domain (Homo sapiens (Human), UniProt O60674); assay: JAK2 enzyme assay (Caliper LabChip, peptide phosphorylation); assay type: biochemical; conditions: 25 μM ATP
Sequence of isolated recombinant JAK2 kinase domain (O60674 849-1124): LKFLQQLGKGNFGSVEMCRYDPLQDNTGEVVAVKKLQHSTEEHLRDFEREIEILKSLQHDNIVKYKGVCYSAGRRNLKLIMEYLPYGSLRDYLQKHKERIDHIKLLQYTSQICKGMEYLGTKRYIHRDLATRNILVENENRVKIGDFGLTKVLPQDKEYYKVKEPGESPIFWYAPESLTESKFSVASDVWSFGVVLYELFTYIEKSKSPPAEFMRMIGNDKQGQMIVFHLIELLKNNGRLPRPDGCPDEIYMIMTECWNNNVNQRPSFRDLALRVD

[3] = system: JAK1-dependent STAT6 phosphorylation downstream of IL-13 stimulation in BEAS-2B human bronchial epithelial cells; assay: JAK1 pathway assay in BEAS-2B cells (IL-13-pSTAT6, MSD); assay type: cell-based; conditions: read-out: IL13-pSTAT6 EC50 (uM)_BEAS-2B
Outline: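 TF-1 cells starved of GM-CSF overnight, assayed serum-free; BEAS-2B cells in complete growth medium. Lysate pSTAT6 measured by MSD; EC50 derived.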

Sequence of isolated recombinant JAK1 kinase domain (P23458 875-1153): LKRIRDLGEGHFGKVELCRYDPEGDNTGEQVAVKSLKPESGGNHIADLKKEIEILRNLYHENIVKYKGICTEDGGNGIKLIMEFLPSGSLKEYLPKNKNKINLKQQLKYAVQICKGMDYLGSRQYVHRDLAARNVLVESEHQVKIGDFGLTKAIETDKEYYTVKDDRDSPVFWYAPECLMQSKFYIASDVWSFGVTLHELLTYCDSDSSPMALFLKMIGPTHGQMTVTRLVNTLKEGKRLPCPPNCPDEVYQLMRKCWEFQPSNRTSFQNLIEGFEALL

SMILES | Ki [1] | Ki [2] | EC50 [3]
CNC(=O)[C@@H]1CCCN1C1CCN(C(=O)Cn2cc(NC(=O)c3cnn4cccnc34)c(-c3cc(Cl)ccc3OC(F)F)n2)CC1 [Example 426, N-(3-(5-chloro-2-(difluoromethoxy)phenyl)-1-(2-(4-((S)-2-(methyl-carbamoyl)pyrrolidin-1-yl)piperidin-1-yl)-2-oxoethyl)-1H-pyrazol-4-yl)pyrazolo[1,5-a]pyrimidine-3-carboxamide] | 0.53 nM | 1.25 nM | 0.0394 µM
NC1CCC(=CCn2cc(NC(=O)c3cnn4cccnc34)c(-c3cc(Cl)ccc3OC(F)F)n2)CC1 (stereo not drawn) [Example 422, N-(1-(2-(4-amino-cyclohexylidene)ethyl)-3-(5-chloro-2-(difluoromethoxy)phenyl)-1H-pyrazol-4-yl)pyrazolo[1,5-a]pyrimidine-3-carboxamide] | 0.89 nM | 1.77 nM | 0.061 µM
CN[C@@H](C)Cn1cc(NC(=O)c2cnn3cccnc23)c(-c2cc(Cl)ccc2OC(F)F)n1 [Example 369, N-[3-[5-chloro-2-(difluoromethoxy)phenyl]-1-[(2S)-2-(methylamino)propyl]-1H-pyrazol-4-yl]pyrazolo[1,5-a]pyrimidine-3-carboxamide] | 1.13 nM | 1.25 nM | 0.0093 µM
CCCN1CCN(C(=O)Cn2cc(NC(=O)c3cnn4cccnc34)c(-c3cc(Cl)ccc3OC(F)F)n2)CC1 [Example 319, N-[3-[5-chloro-2-(difluoromethoxy)phenyl]-1-[2-oxo-2-(4-propylpiperazin-1-yl)ethyl]-1H-pyrazol-4-yl]pyrazolo[1,5-a]pyrimidine-3-carboxamide] | 0.5 nM | 0.86 nM | 0.0577 µM
CN1CCN(C(=O)C2CCN(C(=O)Cn3cc(NC(=O)c4cnn5cccnc45)c(-c4cc(Cl)ccc4OC(F)F)n3)CC2)CC1 [Example 398, N-(3-(5-chloro-2-(difluoromethoxy)phenyl)-1-(2-(4-(4-methylpiperazine-1-carbonyl)piperidin-1-yl)-2-oxoethyl)-1H-pyrazol-4-yl)pyrazolo[1,5-a]pyrimidine-3-carboxamide] | 0.5 nM | 1.45 nM | 0.0183 µM
O=C(Nc1cn(CC(=O)N2CCC(N3C[C@@H]4C[C@H]3CO4)CC2)nc1-c1cc(Cl)ccc1OC(F)F)c1cnn2cccnc12 [Example 447, N-(1-(2-(4-((1S,4S)-5-oxa-2-aza-bicyclo[2.2.1]heptan-2-yl)piperidin-1-yl)-2-oxoethyl)-3-(5-chloro-2-(difluoromethoxy)phenyl)-1H-pyrazol-4-yl)pyrazolo[1,5-a]pyrimidine-3-carboxamide] | 0.49 nM | 1.25 nM | 0.0161 µM

Now those with a lower Ki [1], led by results:

Ki [1] | Ki [2] | SMILES | EC50 [3]
0.39 nM | 0.66 nM | CNC(=O)CN1CCN(C(=O)Cn2cc(NC(=O)c3cnn4cccnc34)c(-c3cc(Cl)ccc3OC(F)F)n2)CC1 [Example 383, N-[3-[5-chloro-2-(difluoromethoxy)phenyl]-1-(2-[4-[(methylcarbamoyl)methyl]piperazin-1-yl]-2-oxoethyl)-1H-pyrazol-4-yl]pyrazolo[1,5-a]pyrimidine-3-carboxamide] | 0.277 µM
0.34 nM | 0.98 nM | CN(CC1(CC#N)CC1)C1CCN(C(=O)Cn2cc(NC(=O)c3cnn4cccnc34)c(-c3cc(Cl)ccc3OC(F)F)n2)CC1 [Example 435, N-(3-(5-chloro-2-(difluoromethoxy)phenyl)-1-(2-(4-(((1-(cyanomethyl)cyclopropyl)methyl)(methyl)amino)piperidin-1-yl)-2-oxoethyl)-1H-pyrazol-4-yl)pyrazolo[1,5-a]pyrimidine-3-carboxamide] | 0.0074 µM
0.31 nM | 0.67 nM | O=C(Nc1cn(CC(=O)N2CCC(N3CCSCC3)CC2)nc1-c1cc(Cl)ccc1OC(F)F)c1cnn2cccnc12 [Example 434, N-(3-(5-chloro-2-(difluoromethoxy)phenyl)-1-(2-oxo-2-(4-thiomorpholinopiperidin-1-yl)ethyl)-1H-pyrazol-4-yl)pyrazolo[1,5-a]pyrimidine-3-carboxamide] | 0.0187 µM
